# Laboratory results taken from the supplement of paper PMC4862054.
# Assays:
# Conditions in all cases: incubation time: 72 h
# CAL-148 [1] = experiment: normalised viability (% of control), CellTiter-Blue; higher = more viable cells (about 100 = DMSO control)
# Experimental: (§1)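 DSRT, CellTiter-Blue viability, 72 h incubation. Signal is normalised to DMSO and benzethonium chloride controls. Value is the normalised response at dose 9.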
# CAL-51 [2] = experiment: as above
# Experimental: as §1
# CAL-85-1 [3] = experiment: as above
# Experimental: as §1
# DU-4475 [4] = experiment: as above
# Experimental: as §1
# HDQ-P1 [5] = experiment: as above
# Experimental: as §1
# MDA-MB-453 [6] = experiment: as above
# Experimental: as §1
# BT-474 = experiment: normalised response (% of control), CellTiter-Glo; higher = more viable cells (100 = DMSO, 0 = benzethonium chloride kill control)
# Experimental: (§2)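 DSRT, 72 h incubation, CellTox Green / CellTiter-Glo readout. Signal is normalised to DMSO and benzethonium chloride controls. Value is the normalised response at the highest dose.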
# BT-549 = experiment: as above
# Experimental: as §2
# CAL-120 = experiment: as above
# Experimental: as §2
# CAL-148 [7] = experiment: as above
# Experimental: as §2
# CAL-51 [8] = experiment: as above
# Experimental: as §2
# CAL-85-1 [9] = experiment: as above
# Experimental: as §2
# DU-4475 [10] = experiment: as above
# Experimental: as §2
# HCC1937 = experiment: as above
# Experimental: as §2
# HDQ-P1 [11] = experiment: as above
# Experimental: as §2
# Hs578T = experiment: as above
# Experimental: as §2
# MCF-10A = experiment: as above
# Experimental: as §2
# MDA-MB-231 = experiment: as above
# Experimental: as §2
# MDA-MB-453 [12] = experiment: as above
# Experimental: as §2
# MFM-223 = experiment: as above
# Experimental: as §2
# SK-BR-3 = experiment: as above
# Experimental: as §2
SMILES,normalised viability (CAL-148 [1]) [%],normalised viability (CAL-51 [2]) [%],normalised viability (CAL-85-1 [3]) [%],normalised viability (DU-4475 [4]) [%],normalised viability (HDQ-P1 [5]) [%],normalised viability (MDA-MB-453 [6]) [%],normalised response (BT-474) [%],normalised response (BT-549) [%],normalised response (CAL-120) [%],normalised response (CAL-148 [7]) [%],normalised response (CAL-51 [8]) [%],normalised response (CAL-85-1 [9]) [%],normalised response (DU-4475 [10]) [%],normalised response (HCC1937) [%],normalised response (HDQ-P1 [11]) [%],normalised response (Hs578T) [%],normalised response (MCF-10A) [%],normalised response (MDA-MB-231) [%],normalised response (MDA-MB-453 [12]) [%],normalised response (MFM-223) [%],normalised response (SK-BR-3) [%]
CN1CC[C@H](c2c(O)cc(O)c3c(=O)cc(-c4ccccc4Cl)oc23)[C@H](O)C1 [Alvocidib] (10000 nM),17,5.62,2.66,1.22,16.4,10.1,21.7,5.51,37,58.3,15.7,7.8,8.12,26.2,26.2,7.68,7.83,3.28,18.1,10,1.32
Nc1nc(Cl)nc2c1ncn2[C@H]1C[C@H](O)[C@@H](CO)O1 [Cladribine] (1000 nM),52.4,69.8,67.8,40.3,104,73.7,74.8,39.6,79,93.6,124,75.5,92.9,82.8,89.2,102,102,88.4,126,109,74.1
OC[C@H]1O[C@@H](n2cnc3c2N=CNC[C@H]3O)C[C@@H]1O [Pentostatin] (10000 nM),124,88.3,108,103,99.7,106,88.9,92.5,101,105,90.2,99.2,99.8,98.9,98.1,98,106,103,110,99.3,104
N#CC[C@H](C1CCCC1)n1cc(-c2ncnc3[nH]ccc23)cn1 [Ruxolitinib] (10000 nM),106,87.3,115,113,107,66.1,81.8,101,77.7,98.2,88.9,98.5,98.4,96.9,86.3,102,72.5,86,87.6,73.2,91.5
CS(=O)(=O)c1ccc(C(=O)Nc2ccc(Cl)c(-c3ccccn3)c2)c(Cl)c1 [Vismodegib] (10000 nM),81.6,109,104,123,89.3,86.5,90.4,102,99.3,86.5,97.8,103,97.8,90,91.7,99.5,93.9,98,87.9,91.4,87.3
Cc1c2oc3c(C)ccc(C(=O)N[C@@H]4C(=O)N[C@H](C(C)C)C(=O)N5CCC[C@H]5C(=O)N(C)CC(=O)N(C)[C@@H](C(C)C)C(=O)O[C@@H]4C)c3nc-2c(C(=O)N[C@@H]2C(=O)N[C@H](C(C)C)C(=O)N3CCC[C@H]3C(=O)N(C)CC(=O)N(C)[C@@H](C(C)C)C(=O)O[C@@H]2C)c(N)c1=O [Dactinomycin] (1000 nM),12,4.61,2.21,-0.64,16.8,5.82,12.8,1.88,33.1,52,9.31,5.09,3.22,25.2,24.8,3.61,2.65,2.02,16.7,11.9,1.39
Nc1ccn([C@@H]2O[C@H](CO)[C@@H](O)[C@@H]2O)c(=O)n1 [Cytarabine] (10000 nM),29.1,14.7,68.2,22.1,87.4,58.7,87.2,56.6,88.1,40.2,25.4,69.3,69.6,76.5,77.4,77.9,71.3,79.6,76.4,106,43
